Data reported in patent publication US20260078119A1, “DEGRADER COMPOUNDS AND USES THEREOF” (Bristol-Myers Squibb Company, priority 2024, published 2026).
pEC50: −log10 of the molar value.

What was measured:
FAK = biological target: T1, FAK (Homo sapiens, UniProt Q05397); experiment: FAK-HiBiT Degradation Assay; format: cell-based; conditions: for DC50: JHH-4-FAK-HiBiT clone d01 cells, two hours incubation, 10-point dose response, 3-fold dilution starting at 1 μM, Nano-Glo HiBiT luminescence, read-out: FAK HiBiT EC50; for FAK HiBiT Ymin: lower limit of the four parameter fit (value A), Ymax derived using DMSO control, JHH-4-FAK-HiBiT cells, two hours
T1 construct: homozygous knock-in of a HiBiT tag (Promega Corporation, Madison, WI) to the C-terminus of the FAK gene in its natural genomic locus; endogenous in cells; host or cells: JHH-4-FAK-HiBiT clone d01 (CRISPR-Cas9 knock-in at the endogenous locus)
Summary of the method: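 Degradation read out by HiBiT lytic luminescence after 2 h compound exposure (top concentration 1 μM, 3-fold, 10 points) in JHH-4 clone d01 bearing endogenous FAK-HiBiT knock-in. Four-parameter logistic fit gave EC50 and Ymin; DMSO wells defined Ymax.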

CAL-51 cells = experiment: CAL-51 Cell Proliferation Assay; format: cell-based; conditions: for pEC50: Homo sapiens, 120 hours incubation, 10-point dose response, 4-fold dilutions starting at 10 μM, Cell-Titer-Glo, read-out: CAL-51 Prolif EC50; for CAL-51 Prolif Ymin: minimal percent of DMSO control observed in the concentrations tested (Ymin-obs), 120 hours
Summary of the method: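 EC50 comes from a four-parameter logistic fit of blank-corrected, DMSO-normalised CellTiter-Glo signal after 120 h growth (37 °C, 350 cells/well, RPMI complete medium). Compounds ran as 10-point 4-fold series starting at 10 μM, duplicate, 0.1% DMSO. Ymin-obs records the minimal percent of DMSO control observed.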

T1 sequence (Q05397 whole entry): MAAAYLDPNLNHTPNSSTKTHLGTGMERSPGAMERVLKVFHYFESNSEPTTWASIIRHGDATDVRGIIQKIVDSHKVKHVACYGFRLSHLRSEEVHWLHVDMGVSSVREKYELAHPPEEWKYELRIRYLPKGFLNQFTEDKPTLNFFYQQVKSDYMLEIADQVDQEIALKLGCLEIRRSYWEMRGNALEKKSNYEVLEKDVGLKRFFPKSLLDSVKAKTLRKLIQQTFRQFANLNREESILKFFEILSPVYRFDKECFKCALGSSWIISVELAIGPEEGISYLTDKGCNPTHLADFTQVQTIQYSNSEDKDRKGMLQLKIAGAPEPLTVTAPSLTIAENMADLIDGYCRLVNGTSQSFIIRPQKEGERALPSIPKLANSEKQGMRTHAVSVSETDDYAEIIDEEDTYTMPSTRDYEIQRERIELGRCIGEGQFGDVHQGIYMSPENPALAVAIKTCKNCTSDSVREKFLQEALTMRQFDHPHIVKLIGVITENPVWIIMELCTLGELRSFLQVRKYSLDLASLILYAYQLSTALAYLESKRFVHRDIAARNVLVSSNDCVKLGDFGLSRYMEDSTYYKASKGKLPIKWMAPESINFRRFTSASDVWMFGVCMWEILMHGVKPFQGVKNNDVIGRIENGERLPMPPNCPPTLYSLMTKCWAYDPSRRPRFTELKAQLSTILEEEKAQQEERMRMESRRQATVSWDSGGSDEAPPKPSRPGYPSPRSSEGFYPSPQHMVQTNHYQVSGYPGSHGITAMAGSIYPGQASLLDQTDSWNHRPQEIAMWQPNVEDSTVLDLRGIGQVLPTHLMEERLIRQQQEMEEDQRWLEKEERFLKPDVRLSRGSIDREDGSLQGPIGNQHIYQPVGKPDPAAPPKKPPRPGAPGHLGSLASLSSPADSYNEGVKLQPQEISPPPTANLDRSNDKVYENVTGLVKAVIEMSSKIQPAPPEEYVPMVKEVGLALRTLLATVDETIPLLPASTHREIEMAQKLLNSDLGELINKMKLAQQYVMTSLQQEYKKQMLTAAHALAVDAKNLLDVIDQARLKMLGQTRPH

DC50 (FAK) [nM]	FAK HiBiT Ymin (FAK)	SMILES	pEC50 (CAL-51 cells)	CAL-51 Prolif Ymin (CAL-51 cells)
≥ 1000	92.07	O=C1CC[C@H](N2Cc3cc(Cn4ncc5c(-c6ncc(C(F)(F)F)cc6Cl)cc(N6CCOCC6)nc54)ccc3C2=O)C(=O)N1 [Example 131, (3S)-3-[5-({4-[3-chloro-5-(trifluoromethyl)pyridin-2-yl]-6-(morpholin-4-yl)-1H-pyrazolo[3,4-b]pyridin-1-yl}methyl)-1-oxo-2,3-dihydro-1H-isoindol-2-yl]piperidine-2,6-dione]	8.51	59.06
37.9	17.24	O=C1CC[C@H](N2Cc3cc(Cn4ncc5c(-c6ncc(C(F)(F)F)cc6Cl)cc(N6CCC(O)C6)nc54)ccc3C2=O)C(=O)N1 (stereo in doubt) [Example 106, (3S)-3-[5-({4-[3-chloro-5-(trifluoromethyl)pyridin-2-yl]-6-[(3R)-3-hydroxypyrrolidin-1-yl]-1H-pyrazolo[3,4-b]pyridin-1-yl}methyl)-1-oxo-2,3-dihydro-1H-isoindol-2-yl]piperidine-2,6-dione]	7.26	53.56
18.3	23.92	CN(c1cc(-c2ncc(C(F)(F)F)cc2Cl)c2cnn(Cc3ccc4c(c3)CN(C3CCC(=O)NC3=O)C4=O)c2n1)C1CCOCC1 (centres unmarked) [Example 94, 3-[5-({4-[3-chloro-5-(trifluoromethyl)pyridin-2-yl]-6-[methyl(oxan-4-yl)amino]-1H-pyrazolo[3,4-b]pyridin-1-yl}methyl)-1-oxo-2,3-dihydro-1H-isoindol-2-yl]piperidine-2,6-dione]	8.26	47.74
0.91	8.98	O=C1CCC(N2Cc3cc(Cn4ncc5c(-c6ncc(C(F)(F)F)cc6Cl)cc(N6CC(F)C6)nc54)ccc3C2=O)C(=O)N1 (centres unmarked) [Example 34, 3-[5-({4-[3-chloro-5-(trifluoromethyl)pyridin-2-yl]-6-(3-fluoroazetidin-1-yl)-1H-pyrazolo[3,4-b]pyridin-1-yl}methyl)-1-oxo-2,3-dihydro-1H-isoindol-2-yl]piperidine-2,6-dione]	8.97	26.10
6.62	11.02	N#Cc1cnc(-c2cc(N3CC(F)C3)nc3c2cnn3Cc2ccc3c(c2)CN(C2CCC(=O)NC2=O)C3=O)c(Cl)c1 (centres unmarked) [Example 73, 5-chloro-6-(1-{[2-(2,6-dioxopiperidin-3-yl)-1-oxo-2,3-dihydro-1H-isoindol-5-yl]methyl}-6-(3-fluoroazetidin-1-yl)-1H-pyrazolo[3,4-b]pyridin-4-yl)pyridine-3-carbonitrile]	8.47	23.58
4.08	8.81	Cc1cc(C(F)(F)F)ccc1-c1cc(N2CC[C@H](O)C2)nc2c1cnn2Cc1ccc2c(c1)CN([C@H]1CCC(=O)NC1=O)C2=O [Example 63, (3S)-3-[5-({6-[(3S)-3-hydroxypyrrolidin-1-yl]-4-[2-methyl-4-(trifluoromethyl)phenyl]-1H-pyrazolo[3,4-b]pyridin-1-yl}methyl)-1-oxo-2,3-dihydro-1H-isoindol-2-yl]piperidine-2,6-dione]	8.72	31.58
8	8.29	O=C1CC[C@H](N2Cc3cc(Cn4ncc5c(-c6ncc(C(F)(F)F)cc6Cl)cc(N6CC(F)C6)nc54)cnc3C2=O)C(=O)N1 [Example 77, (3S)-3-[3-({4-[3-chloro-5-(trifluoromethyl)pyridin-2-yl]-6-(3-fluoroazetidin-1-yl)-1H-pyrazolo[3,4-b]pyridin-1-yl}methyl)-7-oxo-5H,6H,7H-pyrrolo[3,4-b]pyridin-6-yl]piperidine-2,6-dione]	8.44	28.95
0.57	8.83	O=C1CC[C@H](N2Cc3cc(Cn4ncc5c(-c6ncc(OC(F)(F)F)cc6Cl)cc(N6CC(F)C6)nc54)ccc3C2=O)C(=O)N1 [Example 7, (S)-3-(5-((4-(3-chloro-5-(trifluoromethoxy)pyridin-2-yl)-6-(3-fluoroazetidin-1-yl)-1H-pyrazolo[3,4-b]pyridin-1-yl)methyl)-1-oxoisoindolin-2-yl)piperidine-2,6-dione]	9.44	21.87
13.4	8.18	O=C1CCC(N2Cc3cc(Cn4ncc5c(-c6ncccc6Cl)cc(N6CC(F)C6)nc54)ccc3C2=O)C(=O)N1 (centres unmarked) [Example 89, 3-(5-{[4-(3-chloropyridin-2-yl)-6-(3-fluoroazetidin-1-yl)-1H-pyrazolo[3,4-b]pyridin-1-yl]methyl}-1-oxo-2,3-dihydro-1H-isoindol-2-yl)piperidine-2,6-dione]	8.17	24.94
0.98	7.33	Cc1cc(Cl)cnc1-c1c(F)c(N2CC(F)C2)nc2c1cnn2Cc1ccc2c(c1)CN(C1CCC(=O)NC1=O)C2=O (centres unmarked) [Example 37, 3-(5-{[4-(5-chloro-3-methylpyridin-2-yl)-5-fluoro-6-(3-fluoroazetidin-1-yl)-1H-pyrazolo[3,4-b]pyridin-1-yl]methyl}-1-oxo-2,3-dihydro-1H-isoindol-2-yl)piperidine-2,6-dione]	9.22	19.81
1.09	8.19	O=C1CCC(N2Cc3cc(Cn4ncc5c(-c6ncccc6Cl)c(Cl)c(N6CC(F)C6)nc54)ccc3C2=O)C(=O)N1 (centres unmarked) [Example 38, 3-(5-{[5-chloro-4-(3-chloropyridin-2-yl)-6-(3-fluoroazetidin-1-yl)-1H-pyrazolo[3,4-b]pyridin-1-yl]methyl}-1-oxo-2,3-dihydro-1H-isoindol-2-yl)piperidine-2,6-dione]	9.32	21.89
